Like-named read-outs stand apart in the source and are kept apart here.
Key:
mu-opioid receptor (MOR) = biological target: T1, mu-opioid receptor (MOR) (Rattus norvegicus, UniProt P33535); assay: MOR radioligand competition binding assay ([3H]-DAMGO); conditions: Mu screening results
T1 construct: Rat cortices were homogenized using 50 mM Tris, pH 7.4, and centrifuged at 16,500 rpm for 10 min; from tissue; host or cells: rat cortex membranes
Method: MOR binding assay: Rat cortices were homogenized using 50 mM Tris, pH 7.4, and centrifuged at 16,500 rpm for 10 min. The pellets were resuspended in fresh buffer and incubated at 37 °C for 30 min. Following incubation, the suspensions were centrifuged as before, the resulting pellets were resuspended in 100 volumes of 50 mM Tris, pH 7.4 plus 2 mg/mL bovine serum and the suspensions combined. Each assay tube contained 0.5 mL of membrane suspension, 2 nM [^3H]-DAMGO, and 0.02 mg/mL mixture in a total volume of 0.65 mL [13, 45, 53, 55].
(§1) All three binding assays were terminated by filtration through GF/B filters, soaked in 5 mg/mL bovine serum albumin, 50 mM Tris, pH 7.4, on a Tomtec Mach II Harvester 96. The filters were subsequently washed with 6 mL of assay buffer. Bound radioactivity was counted on a Wallac Betaplate Liquid Scintillation Counter. Experiments were conducted using two replicates and repeated twice. Values in Scheme 2 represent the mean ± SD of two experiments with two replicates in each test.

[1] = biological target: T2, kappa-opioid receptor (KOR) (Cavia porcellus, UniProt P41144); assay: KOR radioligand competition binding assay ([3H]U69,593); design: species or system guinea pig; conditions: Kappa screening results
T2 construct: Guinea pig cortices and cerebella were homogenized using 50 mM Tris, pH 7.4; from tissue; host or cells: guinea pig cortex and cerebellum membranes
Method: KOR binding assay: Guinea pig cortices and cerebella were homogenized using 50 mM Tris, pH 7.4, 10 mM MgCl2-6H2O, […] centrifuged and incubated as above. Each assay tube contained 2 nM [^3H]U69,593. Assay tubes were incubated for 2 h at 25 °C. Unlabeled U50,488 was used as a competitor to generate a standard curve and determine nonspecific binding.
as §1

[2] = biological target: T3, delta-opioid receptor (DOR) (Rattus norvegicus, UniProt P33533); assay: DOR radioligand competition binding assay ([3H]-DPDPE); conditions: Delta screening results
T3 construct: Rat cortices were homogenized using 50 mM Tris, pH 7.4, 10 mM MgCl2-6H2O, 200 µM PMSF; from tissue; host or cells: rat cortex membranes
Method: DOR binding assay: Rat cortices were homogenized using 50 mM Tris, pH 7.4, 10 mM MgCl2-6H2O, 200 µM PMSF, centrifuged and incubated as above. Each assay tube contained 2 nM [^3H]-DPDPE. Assay tubes were incubated for 2.5 h at 25 °C. Unlabeled DPDPE was used as a competitor to generate a standard curve and determine nonspecific binding.
as §1

[3] = experiment 1, unit inferred, read-out: Ki (Exp 1)
[4] = experiment 2, unit inferred, read-out: Ki (Exp 2)
[5] = mean of Exp 1 and Exp 2, unit inferred, read-out: MEAN (Ki)
[6] = mean of two experiments, read-out: Ki
[7] = first Ki column, unit not printed (apparently M), read-out: Ki (first column)
[8] = mean of both Ki, unit inferred, read-out: MEAN (Ki)
[9] = second Ki column, unit not printed (apparently M), read-out: Ki (second column)

Row | Compound | Ki (mu-opioid receptor (MOR); [3]) | Ki (mu-opioid receptor (MOR); [4]) | Ki (mu-opioid receptor (MOR); [5]) | Ki (mu-opioid receptor (MOR); [6]) | Ki [1, 3] | Ki [1, 4] | Ki [1, 5] | Ki [1, 6] | Ki [2, 7] | Ki [2, 8] | Ki [2, 6] | Ki [2, 9]
1 | Cc1cc(O)cc(C)c1C[C@H]1CNC(=N)N1C[C@H](Cc1ccc(O)cc1)N1C[C@H](Cc2ccc(O)cc2)NC1=N [1968-54] | 0.0723 µM | 0.0564 µM | 0.0643 µM | 0.064 µM | 1.46 µM | 1.6 µM | 1.53 µM | 1.53 µM | 3.55 µM | 3.28 µM | 3.28 µM | 3.01 µM
2 | Cc1cc(O)cc(C)c1C[C@H]1CN([C@@H](Cc2ccc(O)cc2)CN2C(=N)NC[C@@H]2Cc2c(C)cc(O)cc2C)C(=N)N1 [1968-56] | 0.055 µM | 0.0699 µM | 0.0625 µM | 0.062 µM | 0.736 µM | 1.25 µM | 0.991 µM | 0.991 µM | 1.33 µM | 1.3 µM | 1.3 µM | 1.26 µM
3 | Cc1cc(O)cc(C)c1C[C@H]1CNC(=N)N1C[C@H](CC(C)C)N1C[C@H](Cc2ccccc2)NC1=N [1968-57] | 0.0596 µM | 0.0741 µM | 0.0668 µM | 0.067 µM | 0.371 µM | 0.679 µM | 0.525 µM | 0.525 µM | 1.4 µM | 1.24 µM | 1.24 µM | 1.07 µM
4 | Cc1cc(O)cc(C)c1C[C@H]1CNC(=N)N1C[C@H](CC(C)C)N1C[C@H](Cc2ccc(O)cc2)NC1=N [1968-58] | 0.0551 µM | 0.062 µM | 0.0586 µM | 0.059 µM | 0.542 µM | 0.775 µM | 0.659 µM | 0.659 µM | 1.15 µM | 0.896 µM | 0.896 µM | 0.638 µM
5 | Cc1cc(O)cc(C)c1C[C@H]1CNC(=N)N1C[C@H](CC(C)C)N1C[C@H](CC(C)C)NC1=N [1968-59] | 0.166 µM | 0.156 µM | 0.161 µM | 0.161 µM | 0.223 µM | 0.313 µM | 0.268 µM | 0.268 µM | 3.84 µM | 4.21 µM | 4.21 µM | 4.58 µM
6 | Cc1cc(O)cc(C)c1C[C@H]1CN([C@@H](CC(C)C)CN2C(=N)NC[C@@H]2Cc2c(C)cc(O)cc2C)C(=N)N1 [1968-60] | 0.0664 µM | 0.0712 µM | 0.0688 µM | 0.069 µM | 0.308 µM | 0.422 µM | 0.365 µM | 0.365 µM | 0.978 µM | 0.814 µM | 0.814 µM | 0.651 µM
7 | Cc1cc(O)cc(C)c1C[C@H]1CNC(=N)N1C[C@H](Cc1c(C)cc(O)cc1C)N1C[C@H](Cc2ccccc2)NC1=N [1968-61] | 0.0403 µM | 0.0565 µM | 0.0484 µM | 0.048 µM | 0.877 µM | 1.23 µM | 1.05 µM | 1.05 µM | 1.06 µM | 1.02 µM | 1.02 µM | 0.985 µM
8 | Cc1cc(O)cc(C)c1C[C@H]1CNC(=N)N1C[C@H](Cc1c(C)cc(O)cc1C)N1C[C@H](Cc2ccc(O)cc2)NC1=N [1968-62] | 0.0642 µM | 0.0784 µM | 0.0713 µM | 0.071 µM | 2.3 µM | 2.34 µM | 2.32 µM | 2.32 µM | 1.53 µM | 1.28 µM | 1.28 µM | 1.02 µM
